Laboratory results taken from PubChem BioAssay AID1159605 (The Scripps Research Institute Molecular Screening Center, 2016).
Active and inactive are the calls of the source.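 How the source made its calls: active means IC50 of 10 µM or lower; inactive means IC50 above 10 µM.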

What follows are compounds tested against Mitogen-activated protein kinase kinase kinase 5 (Homo sapiens) (UniProt Q99683) (assay: MAP3K5 inhibition concentration-response curves – biochemical, AlphaScreen, MKK6 phosphorylation, dose response (AID 1159605;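 further: ASK1 phosphorylation of MKK6 substrate detected with anti-phospho-MKK6 antibody beads; inhibitors lower the luminescent signal by blocking MKK6 phosphorylation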)). Conditions: ASK1 MKK6 phosphorylation, AlphaScreen luminescence.
Mitogen-activated protein kinase kinase kinase 5 (Homo sapiens), sequence (Q99683 whole entry, looked up): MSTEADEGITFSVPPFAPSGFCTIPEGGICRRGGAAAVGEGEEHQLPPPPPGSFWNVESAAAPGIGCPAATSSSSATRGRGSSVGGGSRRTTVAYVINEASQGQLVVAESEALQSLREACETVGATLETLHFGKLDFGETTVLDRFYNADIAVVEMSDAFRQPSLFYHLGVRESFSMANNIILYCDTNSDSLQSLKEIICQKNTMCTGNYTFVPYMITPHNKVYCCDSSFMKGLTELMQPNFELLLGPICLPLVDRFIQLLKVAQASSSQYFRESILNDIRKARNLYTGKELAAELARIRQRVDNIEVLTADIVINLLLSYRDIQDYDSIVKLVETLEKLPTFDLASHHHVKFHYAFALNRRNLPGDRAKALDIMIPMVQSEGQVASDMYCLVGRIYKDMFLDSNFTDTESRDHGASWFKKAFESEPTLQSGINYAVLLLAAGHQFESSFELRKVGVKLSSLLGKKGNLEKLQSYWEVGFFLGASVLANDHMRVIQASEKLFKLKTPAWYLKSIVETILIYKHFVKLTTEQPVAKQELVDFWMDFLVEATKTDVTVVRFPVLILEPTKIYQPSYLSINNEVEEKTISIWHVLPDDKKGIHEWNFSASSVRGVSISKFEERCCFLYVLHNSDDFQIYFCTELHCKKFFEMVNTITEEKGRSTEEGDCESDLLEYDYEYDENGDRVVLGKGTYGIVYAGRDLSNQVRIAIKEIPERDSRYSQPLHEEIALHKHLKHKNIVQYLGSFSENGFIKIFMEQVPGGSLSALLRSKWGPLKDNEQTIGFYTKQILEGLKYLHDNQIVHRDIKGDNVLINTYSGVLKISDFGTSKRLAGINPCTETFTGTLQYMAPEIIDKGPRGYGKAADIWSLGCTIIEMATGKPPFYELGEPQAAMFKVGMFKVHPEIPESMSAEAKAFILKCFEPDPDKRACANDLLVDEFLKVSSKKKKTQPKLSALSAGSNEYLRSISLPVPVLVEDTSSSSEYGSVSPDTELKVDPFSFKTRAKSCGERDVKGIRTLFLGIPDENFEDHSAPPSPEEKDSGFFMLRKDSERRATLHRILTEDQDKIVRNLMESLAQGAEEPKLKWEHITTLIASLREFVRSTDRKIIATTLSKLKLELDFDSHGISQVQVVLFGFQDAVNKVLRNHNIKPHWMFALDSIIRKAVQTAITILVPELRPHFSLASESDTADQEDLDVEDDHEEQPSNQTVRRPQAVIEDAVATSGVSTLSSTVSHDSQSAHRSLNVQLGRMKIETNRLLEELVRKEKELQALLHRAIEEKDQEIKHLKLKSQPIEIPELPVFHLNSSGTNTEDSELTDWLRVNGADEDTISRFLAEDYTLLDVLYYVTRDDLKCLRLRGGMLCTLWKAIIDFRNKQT

Row | IC50 | Structure (SMILES)
1 | > 19.2 µM (inactive) | COc1cc(NC(=O)c2cccc(-n3cc(NC(=O)Nc4c(C)cccc4Cl)cn3)c2)cc(OC)c1OC
2 | > 18.1 µM (inactive) | COc1ccc(-c2nc3ncnc(Nc4cc(OC)c(OC)c(OC)c4)c3[nH]2)cn1
3 | > 19.2 µM (inactive) | Cc1ccc(-c2cccc3cnc(Nc4ccc(-n5cnc(C)n5)cc4)nc23)cn1
4 | 8.95 µM | COc1cc2nc(Nc3nc4ccccc4n3C)nc(Nc3ccc(N4CCOCC4)cc3)c2cc1OC
5 | > 27.5 µM (inactive) | COc1cc(Nc2nc(-c3c(C)noc3C)nc3c2ncn3Cc2ccc(C(F)(F)F)cc2)cc(OC)c1OC
6 | > 22.5 µM (inactive) | COc1ccc(CCNc2nc(N3CCN(Cc4ccc5c(c4)OCO5)CC3)nc3c2ncn3C2CCCCC2)cc1
7 | > 19.2 µM (inactive) | Cc1cccc(Nc2ccc3c(cnn3-c3cccc(C(=O)NCCN4CCN(CC5CC5)CC4)c3)c2)c1Cl
8 | > 20.1 µM (inactive) | Cc1cnc(-c2csc3ccccc23)nc1Nc1ccc(N2CCOCC2)cc1
9 | > 20.1 µM (inactive) | CN(C)c1cccc(Nc2ccc(-n3cc(CC(=O)Nc4ccc(N5CCOCC5)cc4)c4ccccc43)nn2)c1
10 | inactive | c1ccc(CN2CCC(Nc3nc(N4CCN(Cc5ccc6c(c5)OCO6)CC4)nc4c3ncn4C3CCCCC3)CC2)cc1
11 | > 18.8 µM (inactive) | CC(C)n1c(Nc2cccc(N(C)C)c2)nc2c(NC3CCN(Cc4ccccc4)CC3)ncnc21
12 | 5.3 µM | COc1ccc(CCNc2nc(Nc3ccc(N4CCOCC4)cc3)nc3c2ncn3Cc2ccc(C(F)(F)F)cc2)cc1
13 | > 19 µM (inactive) | COc1cc2nc(Nc3cccc(N(C)C)c3)nc(Nc3cc(OC)c(OC)c(OC)c3)c2cc1OC
14 | 4.33 µM | COc1cc2nc(Nc3nc4ccccc4n3C)nc(Nc3ccc(NC(C)=O)cc3)c2cc1OC
15 | > 20.1 µM (inactive) | COc1cc2nc(Nc3ccc(N4CCOCC4)cc3)nc(NCc3cccc(C(F)(F)F)c3)c2cc1OC
16 | inactive | COc1ccc(CCNc2nc(NC3CCN(Cc4ccccc4)CC3)nc3c2ncn3C2CCCCC2)cc1
17 | > 20.4 µM (inactive) | COc1cc2nc(Nc3cccc(N(C)C)c3)nc(NCCOc3ccccc3)c2cc1OC
18 | inactive | COc1ccc(CCNc2nc(Nc3cccc(N(C)C)c3)nc3cc(OC)c(OC)cc23)cc1
19 | > 21.5 µM (inactive) | CC(C)n1cnc2c(NC3CCN(Cc4ccccc4)CC3)nc(Nc3cccc(N(C)C)c3)nc21
20 | > 19.2 µM (inactive) | COc1ccc2c(c1)CC(C(=O)Nc1ccc(-c3cn[nH]c3)cc1OCCN(Cc1ccccc1)Cc1ccccc1)CO2 (stereo not drawn)
21 | inactive | CC(C)n1cnc2c(Nc3ccc(N4CCOCC4)cc3)nc(N3CCN(c4ccccn4)CC3)nc21

Row | IC50 | Structure (SMILES)
22 | inactive | COc1cc2nc(NC3CCN(Cc4ccccc4)CC3)nc(Nc3ccc(N4CCOCC4)cc3)c2cc1OC
23 | > 18.1 µM (inactive) | Cc1cc(NCCc2ccc(O)cc2)nc(N2CCN(Cc3ccc4c(c3)OCO4)CC2)n1
24 | inactive | COc1cc(Nc2nc(-c3ccc(C(N)=O)cc3)ncc2C)cc(OC)c1OC
25 | > 19.2 µM (inactive) | Cc1c[nH]c2ncnc(-c3ccc(NC(=O)Nc4ccccc4)cc3)c12
26 | > 19.9 µM (inactive) | Cc1cc(Nc2ccc(N3CCOCC3)cc2)nc(Nc2cccc(N(C)C)c2)n1
27 | > 20 µM (inactive) | CC(C)n1cnc2c(Nc3ccc4c(c3)OCO4)nc(Nc3ccc(N4CCOCC4)cc3)nc21
28 | inactive | CN(C)c1cccc(Nc2nc(Nc3ccc4c(c3)OCO4)c3ncn(Cc4ccc(C(F)(F)F)cc4)c3n2)c1
29 | > 17.3 µM (inactive) | NC(=O)c1ccc(-c2nc(NCc3cccc(C(F)(F)F)c3)c3ncn(Cc4ccc(C(F)(F)F)cc4)c3n2)cc1
30 | > 20.1 µM (inactive) | FC(F)(F)c1cccc(CNc2nc(N3CCN(Cc4ccc5c(c4)OCO5)CC3)nc3c2ncn3-c2ccccc2)c1
31 | > 19.2 µM (inactive) | Cc1cccc(Nc2ccc3c(cnn3-c3cccc(C(=O)NCCN4CCNCC4)c3)c2)c1Cl
32 | 8.79 µM | CCN(CC)c1nc(Nc2ccc(N3CCOCC3)cc2)nc(Nc2ccc(-n3ccnc3)cc2)n1
33 | > 21.8 µM (inactive) | c1ccc2c(-c3nccc(Nc4ccc(N5CCOCC5)cc4)n3)csc2c1
34 | 6.21 µM | COc1cc2nc(Nc3cccc(N(C)C)c3)nc(Nc3ccc4c(c3)OCO4)c2cc1OC
35 | > 19.2 µM (inactive) | OC1CCN(c2ccc(Nc3nccc(-c4cc(F)cc(N5CCN(C6CC6)CC5)c4)n3)cc2)CC1
36 | > 21.2 µM (inactive) | Cc1cc(NC2CCN(Cc3ccccc3)CC2)nc(Nc2cccc(N(C)C)c2)n1
37 | > 19.2 µM (inactive) | Cc1[nH]ncc1-c1ccc2nc(NC(=O)C3COc4ccc(F)cc4C3)sc2c1 (stereo not drawn)
38 | inactive | CN(C)c1cccc(Nc2nccc(Nc3ccc4c(c3)OCO4)n2)c1
39 | inactive | COc1cc2nc(Nc3ccncc3)nc(Nc3ccc(N4CCOCC4)cc3)c2cc1OC
40 | > 19 µM (inactive) | CN(C)c1cccc(Nc2ccc(-n3cc(CC(=O)Nc4ccc5c(c4)OCO5)c4ccccc43)nn2)c1
41 | > 17.5 µM (inactive) | COc1cc2nc(Nc3ccc(N4CCOCC4)cc3)nc(Nc3ccc(OCCN4CCCCC4)cc3)c2cc1OC
42 | inactive | Cc1cnc(-c2cccc(N)c2)nc1Nc1ccc(N2CCOCC2)cc1

Row | IC50 | Structure (SMILES)
43 | > 20.3 µM (inactive) | COc1cc2nc(Nc3cc(OC)c(OC)c(OC)c3)nc(Nc3ccc(N4CCOCC4)cc3)c2cc1OC
44 | > 19.2 µM (inactive) | c1ccc2c(c1)OCC(c1nc(N3CCOCC3)c3cc(-c4cn[nH]c4)ccc3n1)O2 (stereo not drawn)
45 | inactive | COc1cc2nc(Nc3nccc4ccccc34)nc(Nc3ccc(NC(C)=O)cc3)c2cc1OC
46 | inactive | CN(C)c1cccc(Nc2nccc(NCCOc3ccccc3)n2)c1
47 | > 19.2 µM (inactive) | Cc1ccc(-c2ncn(-c3ccc(Nc4nccc(-c5cncc6ccccc56)n4)cc3)n2)cn1
48 | inactive | c1ccc(CN2CCC(Nc3ccnc(Nc4ccc(N5CCOCC5)cc4)n3)CC2)cc1
49 | > 19.2 µM (inactive) | CN1CCN(c2ncn(-c3ccc(Nc4nccc(-c5cc(C#N)cc(N6CCC(O)CC6)c5)n4)cc3)n2)CC1
50 | > 18.9 µM (inactive) | COc1cc2nc(Nc3cccc(N(C)C)c3)nc(NCc3cccc(C(F)(F)F)c3)c2cc1OC
51 | inactive | COc1ccc(CCNc2nc(Nc3ccc(N4CCOCC4)cc3)ncc2C)cc1
52 | > 19.2 µM (inactive) | O=c1[nH]cccc1-c1ccc(Nc2nccc(-c3ccc4nc(C5CC5)[nH]c(=O)c4c3)n2)cc1
53 | > 19.9 µM (inactive) | COc1cc2nc(Nc3cccc(N(C)C)c3)nc(Nc3ccc(N4CCOCC4)cc3)c2cc1OC
54 | inactive | Oc1ccc(CCNc2nc(NC3CCN(Cc4ccccc4)CC3)nc3c2ncn3Cc2ccc(C(F)(F)F)cc2)cc1
55 | > 20.1 µM (inactive) | FC(F)(F)c1ccc(Cn2cnc3c(NCc4ccccc4)nc(Nc4ccccc4)nc32)cc1
56 | > 20 µM (inactive) | c1ccc(Oc2ccc(Nc3nc(N4CCc5ccccc5C4)nc4c3ncn4-c3ccccc3)cc2)cc1
57 | > 20.1 µM (inactive) | c1cc(Nc2ccc3c(c2)OCO3)nc(N2CCN(Cc3ccc4c(c3)OCO4)CC2)n1
58 | > 19.2 µM (inactive) | Cc1n[nH]c(C)c1-c1cc(F)cc(-c2ccnc(Nc3ccc(-n4cnc(N5CCOCC5)n4)cc3)n2)c1
59 | > 20 µM (inactive) | CC(C)n1c(-c2ccc(C(N)=O)cc2)nc2c(Nc3ccc(Oc4ccccc4)cc3)ncnc21
60 | inactive | CC(C)n1cnc2c(Nc3ccccc3)nc(Nc3ccc(N4CCOCC4)cc3)nc21
61 | > 19.2 µM (inactive) | Cc1nc(C)n(-c2ccc(Nc3nccc(-c4cccc(-n5nccn5)c4)n3)cc2)n1
62 | 8.82 µM | CC(C)n1cnc2c(NCc3cccc(C(F)(F)F)c3)nc(N3CCN(Cc4ccc5c(c4)OCO5)CC3)nc21
63 | 9.06 µM | COc1ccc(-c2nc(C)cc(Nc3ccc(N4CCOCC4)cc3)n2)cc1

Row | IC50 | Structure (SMILES)
64 | inactive | CCCNc1nc(Nc2ccc(N3CCOCC3)cc2)nc2c1ncn2C1CCCCC1
65 | > 19.2 µM (inactive) | Fc1cc(-c2ccnc(Nc3ccc(N4CCOCC4)cc3)n2)cc(N2CCN(C3CC3)CC2)c1
66 | > 23.1 µM (inactive) | Nc1nc(Nc2ccc(N3CCOCC3)cc2)cc(NC2CCN(Cc3ccccc3)CC2)n1
67 | > 16.9 µM (inactive) | Oc1ccc(CCNc2ncnc3nc(N4CCN(Cc5ccc6c(c5)OCO6)CC4)[nH]c23)cc1
68 | inactive | CN(C)c1cccc(Nc2nc(Nc3ccc(N4CCOCC4)cc3)c3[nH]cnc3n2)c1
69 | inactive | c1cc(-n2cnc3c(NC4CC4)nc(Nc4ccc(N5CCOCC5)cc4)nc32)cs1
70 | > 19.2 µM (inactive) | c1ccc(CCn2ncc(-c3ccnc(Nc4ccc(N5CCOCC5)cc4)c3)c2Nc2ccccc2)cc1
71 | > 20 µM (inactive) | COc1ccc(CCNc2nc(Nc3cccc(N(C)C)c3)nc3c2ncn3C(C)C)cc1
72 | > 19.2 µM (inactive) | c1ccc(Nc2cc(-c3ccnc(Nc4ccc(N5CCOCC5)cc4)c3)nn2-c2ccccc2)cc1
73 | inactive | Cc1cc(Nc2ccc(N3CCOCC3)cc2)nc(N2CCN(Cc3ccc4c(c3)OCO4)CC2)n1
74 | > 19.2 µM (inactive) | O=C(Nc1ccccc1)c1ccccc1Nc1ccnc(Nc2ccc(N3CCOCC3)cc2)c1
75 | inactive | CCN(CC)C(=O)C1CCCN(c2nc(Nc3ccc(N4CCOCC4)cc3)c3ncn(Cc4ccc(C(F)(F)F)cc4)c3n2)C1 (stereo not drawn)
76 | inactive | Cc1cc(Nc2ccc3c(c2)OCO3)nc(Nc2ccc(N3CCOCC3)cc2)n1
77 | > 19.2 µM (inactive) | c1ccc(-c2ncn[nH]2)c(Nc2ccnc(Nc3ccc(N4CCOCC4)cc3)c2)c1
78 | > 20.1 µM (inactive) | c1cncc(CNc2nc(Nc3ccc(N4CCOCC4)cc3)nc3c2ncn3C2CCCCC2)c1
79 | inactive | c1ccc(-n2cnc3c(NCc4cccnc4)nc(Nc4ccc(N5CCOCC5)cc4)nc32)cc1
80 | > 19.2 µM (inactive) | Cn1cc(-c2ccc3cnc(Nc4ccc(-n5cnc(N6CCOCC6)n5)cc4)nc3c2)cn1
81 | > 19.2 µM (inactive) | COc1cc(NC(=O)c2cccc(-n3cc(NC(=O)Nc4ccc(-c5ccccc5)cc4)cn3)c2)cc(OC)c1OC
82 | > 19.1 µM (inactive) | CC(C)n1cnc2c(Nc3ccc(N4CCOCC4)cc3)nc(Nc3ccc(-n4ccnc4)cc3)nc21
83 | > 19.2 µM (inactive) | Cc1ccc(-c2ncn(-c3ccc(Nc4ncc(Cl)c(-c5ccnn5C)n4)cc3)n2)cn1
